Reference: patent US8633315B2, “Substituted hydroxyethyl amine compounds as beta-secretase modulators and methods of use” (Amgen Inc., priority 2007, dated 2014)

Experiments:
[1] = molecular target: BACE1 (Homo sapiens, UniProt P56817); assay: In vitro enzymatic BACE FRET (fluorescence resonance energy transfer) assay; format: biochemical
Method: In Vitro Enzymatic BACE FRET (Fluorescence Resonance Energy Transfer) Assay (Enzyme Assay Data in Table 1)
The assay buffer used in this screen is 0.05 M acetate, pH 4.2, 10% DMSO final, 100 uM genapol (which is a nonionic detergent, below its Critical Micelle Concentration). […] The assay is effectively started by the addition of FRET substrate (50 nM) and the combination is incubated for one hour. The FRET assay is terminated with by addition of Tris buffer, which raises the pH to neutrality, and the fluorescence is determined. The FRET substrate is a peptide with commercially available fluorophore and quencher, on opposite sides of the BACE cleavage site. Proteolytic cleavage of the FRET substrate releases quenching of fluorescence (excitation […] and emission […]).

[2] = system: Cells stably expressing Amyloid Precursor Protein (APP); assay: In vitro BACE cell-based assay (HEK cell assay): Aβ40 in conditioned medium by sandwich ELISA; conditions: Homo sapiens, HEK293, 24 h, Aβ40 in conditioned medium after 24 h incubation
Method: In Vitro BACE Cell-Based Assay:
The cell-based assay measures inhibition or reduction of Aβ40 in conditioned medium of test compound treated cells expressing amyloid precursor protein.
Cells stably expressing Amyloid Precursor Protein (APP) were plated at a density of 40K cells/well in 96 well plates (Costar). The cells were cultivated for 24 hours at 37° C. and 5% CO2 in DMEM supplemented with 10% FBS. The test compounds were then added to cells in 10-point dose response concentrations with the starting concentration being either 100 μM or 10 μM. The compounds were diluted from stock solutions in DMSO and the final DMSO concentration of the test compounds on cells was 0.1%. After 24 h of incubation with the test compounds the supernatant conditioned media was collected and the Aβ 40 levels were determined using a sandwich ELISA. The IC50 of the compound was calculated from the percent of control or percent inhibition of Aβ 40 as a function of the concentration of the test compound.
The sandwich ELISA to detect Aβ 40 was performed in 96 well microtiter plates, which were pre-treated with goat anti-rabbit IgG (Pierce). The capture and detecting antibody pair that were used to detect Aβ 40 from cell supernatants were affinity purified pAb40 (Biosource) and biotinylated 6E10 (Signet Labs Inc.), respectively. The optimal concentration for the pAb40 antibody was 3 μg/ml in Superblock/TBS (Pierce) that was supplemented with 0.05% Tween 20 (Sigma). Optimal concentration for the detection antibody 6E10-biotinylated was 0.5 μg/ml in Superblock/TBS (Pierce) that had been supplemented with 2% normal goat serum and 2% normal mouse serum.
Cellular supernatants were incubated with the capture antibody for 3 h at 4° C., followed by 3 wash steps in TBS-tween (0.05%). The detecting antibody incubation was for 2 h at 4° C., again followed by the wash steps as described previously. The final readout of the ELISA is Time-Resolved Fluorescence (counts per minute) using Delfia reagents Streptavidin-Europium and Enhancement solutions (Perkin Elmer) and the Victor 2 multilabel counter (Perkin Elmer).
Of the compounds tested, in-the cell-based assay, data for each of Examples 33-156 is provided in Table 1 and Examples 208-246 are provided in Table 4.

Sequence of BACE1 (P56817 46-501, species assumed): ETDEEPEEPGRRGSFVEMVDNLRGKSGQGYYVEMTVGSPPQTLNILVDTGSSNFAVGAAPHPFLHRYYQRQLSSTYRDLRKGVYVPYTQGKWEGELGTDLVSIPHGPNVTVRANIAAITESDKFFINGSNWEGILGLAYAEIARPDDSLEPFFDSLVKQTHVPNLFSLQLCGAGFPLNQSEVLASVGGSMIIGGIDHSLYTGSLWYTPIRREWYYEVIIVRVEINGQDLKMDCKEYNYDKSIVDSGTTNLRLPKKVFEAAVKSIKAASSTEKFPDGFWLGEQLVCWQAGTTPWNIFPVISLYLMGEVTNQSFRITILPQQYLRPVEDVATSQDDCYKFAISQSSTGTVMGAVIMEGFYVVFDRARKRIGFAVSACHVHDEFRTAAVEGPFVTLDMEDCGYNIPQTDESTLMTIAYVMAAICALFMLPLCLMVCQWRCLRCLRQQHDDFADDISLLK

IC50 [1] | IC50 [2] | Structure (SMILES)
0.675 µM | 0.802 µM | C=CC[C@H](NC(=O)c1cnccc1OC)[C@H](O)CN[C@H]1CC2(CCC2)Oc2ncc(CC(C)(C)C)cc21 [Example 76, N-((1S)-1-((1R)-2-(((4′S)-6′-(2,2-dimethylpropyl)-3′,4′-dihydrospiro[cyclobutane-1,2′-pyrano[2,3-b]pyridin]-4′-yl)amino)-1-hydroxyethyl)-3-buten-1-yl)-4-(methyloxy)-3-pyridinecarboxamide]
2.67 µM | 5.28 µM | C=CC[C@H](NC(=O)[C@H](OC)C(C)C)[C@H](O)CN[C@H]1CC2(CCC2)Oc2ncc(CC(C)(C)C)cc21 [Example 150, (2R)-N-((1S)-1-((1R)-2-(((4′S)-6′-(2,2-dimethylpropyl)-3′,4′-dihydrospiro[cyclobutane-1,2′-pyrano[2,3-b]pyridin]-4′-yl)amino)-1-hydroxyethyl)-3-buten-1-yl)-3-methyl-2-(methyloxy)butanamide]
0.049 µM | 0.511 µM | C#CC[C@H](NC(=O)COC)[C@H](O)CN[C@H]1CC2(CCC2)Oc2ncc(CC(C)(C)C)cc21 [Example 85, N-((1S)-1-((1R)-2-(((4′S)-6′-(2,2-dimethylpropyl)-3′,4′-dihydrospiro[cyclobutane-1,2′-pyrano[2,3-b]pyridin]-4′-yl)amino)-1-hydroxyethyl)-3-butyn-1-yl)-2-(methyloxy)acetamide]
0.115 µM | 0.194 µM | C=CC[C@H](NC(=O)[C@H](F)C(F)(F)F)[C@H](O)CN[C@H]1CC2(CCC2)Oc2ncc(CC(C)(C)C)cc21 [Example 138, (2S)-N-((1S)-1-((1R)-2-(((4′S)-6′-(2,2-dimethylpropyl)-3′,4′-dihydrospiro[cyclobutane-1,2′-pyrano[2,3-b]pyridin]-4′-yl)amino)-1-hydroxyethyl)-3-buten-1-yl)-2,3,3,3-tetrafluoropropanamide]
0.382 µM | 0.331 µM | C=CC[C@H](NC(=O)[C@@H]1CC1(F)F)[C@H](O)CN[C@H]1CC2(CCC2)Oc2ncc(CC(C)(C)C)cc21 [Example 140, (1S)-N-((1S)-1-((1R)-2-(((4′S)-6′-(2,2-dimethylpropyl)-3′,4′-dihydrospiro[cyclobutane-1,2′-pyrano[2,3-b]pyridin]-4′-yl)amino)-1-hydroxyethyl)-3-buten-1-yl)-2,2-difluorocyclopropanecarboxamide]
0.215 µM | 1.4 µM | C=CC[C@H](NC(=O)c1ccc(OC)nc1)[C@H](O)CN[C@H]1CC2(CCC2)Oc2ncc(CC(C)(C)C)cc21 [Example 63, N-((1S)-1-((1R)-2-(((4′S)-6′-(2,2-dimethylpropyl)-3′,4′-dihydrospiro[cyclobutane-1,2′-pyrano[2,3-b]pyridin]-4′-yl)amino)-1-hydroxyethyl)-3-buten-1-yl)-6-(methyloxy)-3-pyridinecarboxamide]
0.228 µM | 4.17 µM | C#CC[C@H](NC(=O)c1cc(F)cc(F)c1)[C@H](O)CN[C@H]1CC2(CCC2)Oc2ncc(CC(C)(C)C)cc21 [Example 36, N-((1S)-1-((1R)-2-(((4′S)-6′-(2,2-dimethylpropyl)-3′,4′-dihydrospiro[cyclobutane-1,2′-pyrano[2,3-b]pyridin]-4′-yl)amino)-1-hydroxyethyl)-3-butyn-1-yl)-3,5-difluorobenzamide]
0.154 µM | 2.36 µM | C=CC[C@H](NC(=O)c1ccc2c(c1)OC(F)(F)O2)[C@H](O)CN[C@H]1CC2(CCC2)Oc2ncc(CC(C)(C)C)cc21 [Example 104, N-((1S)-1-((1R)-2-(((4′S)-6′-(2,2-dimethylpropyl)-3′,4′-dihydrospiro[cyclobutane-1,2′-pyrano[2,3-b]pyridin]-4′-yl)amino)-1-hydroxyethyl)-3-buten-1-yl)-2,2-difluoro-1,3-benzodioxole-5-carboxamide]
0.131 µM | 0.228 µM | C=CC[C@H](NC(=O)c1cccnn1)[C@H](O)CN[C@H]1CC2(CCC2)Oc2ncc(CC(C)(C)C)cc21 [Example 57, N-((1S)-1-((1R)-2-(((4′S)-6′-(2,2-dimethylpropyl)-3′,4′-dihydrospiro[cyclobutane-1,2′-pyrano[2,3-b]pyridin]-4′-yl)amino)-1-hydroxyethyl)-3-buten-1-yl)-3-pyridazinecarboxamide]
0.005 µM | 0.0291 µM | C=CC[C@H](NC(=O)c1cc(F)cc(F)c1)[C@H](O)CN[C@H]1CC2(CCC2)Oc2ncc(CC(C)(C)C)cc21 [Example 61, N-((1S)-1-((1R)-2-(((4′S)-6′-(2,2-dimethylpropyl)-3′,4′-dihydrospiro[cyclobutane-1,2′-pyrano[2,3-b]pyridin]-4′-yl)amino)-1-hydroxyethyl)-3-buten-1-yl)-3,5-difluorobenzamide]
0.155 µM | 0.121 µM | C=CC[C@H](NC(=O)c1cccc(F)c1F)[C@H](O)CN[C@H]1CC2(CCC2)Oc2ncc(CC(C)(C)C)cc21 [Example 69, N-((1S)-1-((1R)-2-(((4′S)-6′-(2,2-dimethylpropyl)-3′,4′-dihydrospiro[cyclobutane-1,2′-pyrano[2,3-b]pyridin]-4′-yl)amino)-1-hydroxyethyl)-3-buten-1-yl)-2,3-difluorobenzamide]
0.104 µM | 0.624 µM | C=CC[C@H](NC(=O)COC)[C@H](O)CN[C@H]1CC2(CCC2)Oc2ccc(CC(C)C)cc21 [Example 35, N-((1S)-1-((1R)-1-hydroxy-2-(((4S)-6-(2-methylpropyl)-3,4-dihydrospiro[chromene-2,1′-cyclobutan]-4-yl)amino)ethyl)-3-buten-1-yl)-2-(methyloxy)acetamide]
0.371 µM | 2.58 µM | C=CC[C@H](NC(=O)c1cccc(F)c1)[C@H](O)CN[C@H]1CC2(CCC2)Oc2ncc(CC(C)(C)C)cc21 [Example 64, N-((1S)-1-((1R)-2-(((4′S)-6′-(2,2-dimethylpropyl)-3′,4′-dihydrospiro[cyclobutane-1,2′-pyrano[2,3-b]pyridin]-4′-yl)amino)-1-hydroxyethyl)-3-buten-1-yl)-3-fluorobenzamide]
2.89 µM | 0.539 µM | C=CC[C@H](NC(=O)[C@H](F)c1ccccc1)[C@H](O)CN[C@H]1CC2(CCC2)Oc2ncc(CC(C)(C)C)cc21 [Example 143, (2R)-N-((1S)-1-((1R)-2-(((4′S)-6′-(2,2-dimethylpropyl)-3′,4′-dihydrospiro[cyclobutane-1,2′-pyrano[2,3-b]pyridin]-4′-yl)amino)-1-hydroxyethyl)-3-buten-1-yl)-2-fluoro-2-phenylethanamide]
0.04 µM | 0.222 µM | C#CC[C@H](NC(C)=O)[C@H](O)CN[C@H]1CC2(CCC2)Oc2ncc(CC(C)(C)C)cc21 [Example 84, N-((1S)-1-((1R)-2-(((4′S)-6′-(2,2-dimethylpropyl)-3′,4′-dihydrospiro[cyclobutane-1,2′-pyrano[2,3-b]pyridin]-4′-yl)amino)-1-hydroxyethyl)-3-butyn-1-yl)acetamide]
0.445 µM | 0.207 µM | C=CC[C@H](NC(=O)[C@@H](C)OC)[C@H](O)CN[C@H]1CC2(CCC2)Oc2nc(F)c(CC(C)C)cc21 [Example 127, (2R)-N-((1S)-1-((1R)-2-(((4′S)-7′-fluoro-6′-(2-methylpropyl)-3′,4′-dihydrospiro[cyclobutane-1,2′-pyrano[2,3-b]pyridin]-4′-yl)amino)-1-hydroxyethyl)-3-buten-1-yl)-2-(methyloxy)propanamide]
0.198 µM | 0.277 µM | C=CC[C@H](NC(=O)[C@H]1CC1(F)F)[C@H](O)CN[C@H]1CC2(CCC2)Oc2ncc(CC(C)(C)C)cc21 [Example 139, (1R)-N-((1S)-1-((1R)-2-(((4′S)-6′-(2,2-dimethylpropyl)-3′,4′-dihydrospiro[cyclobutane-1,2′-pyrano[2,3-b]pyridin]-4′-yl)amino)-1-hydroxyethyl)-3-buten-1-yl)-2,2-difluorocyclopropanecarboxamide]
0.018 µM | 0.133 µM | C#CCC(NC(=O)C1CCC(=O)O1)C(O)CNC1CC2(CCC2)Oc2ncc(CC(C)(C)C)cc21 [Example 37, (2R)-N-((1S)-1-((1R)-2-(((1s,3S,4′S)-6′-(2,2-dimethylpropyl)-3′,4′-dihydrospiro[cyclobutane-1,2′-pyrano[2,3-b]pyridin]-4′-yl)amino)-1-hydroxyethyl)-3-butyn-1-yl)-5-oxotetrahydro-2-furancarboxamide]
